{
  "source": "ChEMBL document CHEMBL4371054",
  "about": "“Dual inhibition of Kif15 by oxindole and quinazolinedione chemical probes” (Bioorg Med Chem Lett, 2019)",
  "key": {"[1]": {"target": "T1, Kinesin-like protein KIF15 (Homo sapiens) (UniProt Q9NS87)", "T1 sequence (whole entry)": "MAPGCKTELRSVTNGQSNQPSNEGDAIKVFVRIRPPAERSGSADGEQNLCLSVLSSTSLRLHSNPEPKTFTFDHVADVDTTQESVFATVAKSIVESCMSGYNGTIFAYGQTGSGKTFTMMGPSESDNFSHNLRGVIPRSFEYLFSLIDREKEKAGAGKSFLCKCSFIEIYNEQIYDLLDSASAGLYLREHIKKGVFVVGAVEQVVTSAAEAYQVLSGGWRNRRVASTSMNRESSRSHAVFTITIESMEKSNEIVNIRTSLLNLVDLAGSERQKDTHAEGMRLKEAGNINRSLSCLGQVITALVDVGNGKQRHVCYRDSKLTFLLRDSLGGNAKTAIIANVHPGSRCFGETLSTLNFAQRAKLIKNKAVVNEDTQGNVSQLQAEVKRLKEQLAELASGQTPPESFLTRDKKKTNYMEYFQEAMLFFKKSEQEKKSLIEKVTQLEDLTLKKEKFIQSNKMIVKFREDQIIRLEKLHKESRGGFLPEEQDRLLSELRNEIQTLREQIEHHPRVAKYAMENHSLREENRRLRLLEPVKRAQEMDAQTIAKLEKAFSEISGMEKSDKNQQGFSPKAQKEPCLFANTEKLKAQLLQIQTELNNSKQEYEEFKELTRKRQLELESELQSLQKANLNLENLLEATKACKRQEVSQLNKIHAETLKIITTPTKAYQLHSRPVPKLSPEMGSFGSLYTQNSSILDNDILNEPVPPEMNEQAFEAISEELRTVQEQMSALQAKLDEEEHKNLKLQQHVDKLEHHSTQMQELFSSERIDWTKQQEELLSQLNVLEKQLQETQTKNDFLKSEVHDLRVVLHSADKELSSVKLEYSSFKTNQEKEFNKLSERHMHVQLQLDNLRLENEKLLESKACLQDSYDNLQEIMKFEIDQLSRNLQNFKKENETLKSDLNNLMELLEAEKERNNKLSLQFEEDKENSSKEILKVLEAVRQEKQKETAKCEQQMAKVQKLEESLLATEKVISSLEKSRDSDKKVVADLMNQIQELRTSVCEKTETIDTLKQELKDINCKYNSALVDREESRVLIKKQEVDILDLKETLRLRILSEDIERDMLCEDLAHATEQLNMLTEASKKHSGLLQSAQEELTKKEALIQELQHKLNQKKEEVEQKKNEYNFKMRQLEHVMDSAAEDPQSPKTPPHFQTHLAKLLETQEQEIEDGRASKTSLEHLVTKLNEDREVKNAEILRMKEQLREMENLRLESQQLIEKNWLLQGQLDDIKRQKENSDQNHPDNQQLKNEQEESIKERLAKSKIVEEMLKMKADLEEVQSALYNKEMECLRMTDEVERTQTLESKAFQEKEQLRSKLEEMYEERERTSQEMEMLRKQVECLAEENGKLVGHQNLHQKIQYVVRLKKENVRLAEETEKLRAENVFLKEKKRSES", "test": "ATP non-competitive inhibition of recombinant His6-tagged Kif15 ATPase activity (N700 residues) (unknown origin) expressed in HeLa cells at 0.5 to 2 uM using microtubule as substrate preincubated for 30 mins followed by varying levels of ATP addition by double reciprocal Lineweaver-Burk plot analysis"}, "[2]": {"target": "T1, Kinesin-like protein KIF15 (Homo sapiens)", "test": "Inhibition of Kif15 in TP53-deficient human RPE1 cells assessed as cells with bipolar pre-anaphase microtubule structure at 25 uM after 24 hrs by Hoechst 33342 staining based immunofluorescence microscopic analysis (reference value: 90 to 94%)", "parameters": "scale not given: the % may be the effect or the level left"}, "[3]": {"target": "T2, Kinesin-like protein KIFC1 (Homo sapiens) (UniProt Q9BW19)", "T2 sequence (whole entry)": "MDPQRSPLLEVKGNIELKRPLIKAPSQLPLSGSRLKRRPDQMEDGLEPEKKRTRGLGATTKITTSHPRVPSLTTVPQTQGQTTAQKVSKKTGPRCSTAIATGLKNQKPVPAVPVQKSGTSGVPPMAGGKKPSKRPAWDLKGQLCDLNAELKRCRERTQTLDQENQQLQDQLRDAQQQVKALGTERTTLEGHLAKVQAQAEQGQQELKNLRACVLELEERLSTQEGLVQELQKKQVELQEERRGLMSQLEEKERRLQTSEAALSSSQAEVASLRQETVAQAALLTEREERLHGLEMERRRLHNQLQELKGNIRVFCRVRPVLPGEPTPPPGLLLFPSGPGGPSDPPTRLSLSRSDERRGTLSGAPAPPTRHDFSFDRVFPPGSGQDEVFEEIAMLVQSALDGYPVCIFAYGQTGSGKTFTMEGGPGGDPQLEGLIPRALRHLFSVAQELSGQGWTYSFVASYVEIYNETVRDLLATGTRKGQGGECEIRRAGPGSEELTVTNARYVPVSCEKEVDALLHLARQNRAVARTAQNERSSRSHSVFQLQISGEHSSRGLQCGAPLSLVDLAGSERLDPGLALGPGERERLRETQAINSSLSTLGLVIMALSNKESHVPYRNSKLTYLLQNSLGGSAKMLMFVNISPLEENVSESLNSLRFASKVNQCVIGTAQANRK", "test": "Inhibition of recombinant His6-tagged HSET (unknown origin) assessed as reduction in Alexa-594 labelled microtubule gliding at 30 uM measured every 2 secs for 20 secs by epifluorescence microscopic analysis relative to control"}, "[4]": {"target": "T1, Kinesin-like protein KIF15 (Homo sapiens)", "test": "Inhibition of recombinant His6-tagged Kif15 ATPase activity (N420 residues) (unknown origin) expressed in HeLa cells at 10 uM using microtubule as substrate preincubated for 15 mins followed by ATP addition and measured after 20 mins by ADP-Glo luminescence assay relative to control"}, "[5]": {"target": "T1, Kinesin-like protein KIF15 (Homo sapiens)", "test": "Inhibition of recombinant His6-tagged Kif15 (N700 residues) (unknown origin) expressed in HeLa cells assessed as reduction in Alexa-594 labelled microtubule gliding at 30 uM measured every 2 secs for 20 secs by epifluorescence microscopic analysis relative to control", "format": "cell-based"}, "[6]": {"target": "T1, Kinesin-like protein KIF15 (Homo sapiens)", "test": "Inhibition of Kif15 in TP53-deficient human RPE1 cells assessed as reduction in spindle-bound Kif15 level at 25 uM after 24 hrs by Hoechst 33342 staining based immunofluorescence microscopic analysis relative to control"}, "[7]": {"target": "T1, Kinesin-like protein KIF15 (Homo sapiens)", "test": "Reversible inhibition of recombinant His6-tagged Kif15 (N700 residues) (unknown origin) expressed in HeLa cells assessed as reduction in Alexa-594 labelled microtubule gliding at 10 uM treated for 1 min followed by compound washout and measured every 2 secs for 1 min by epifluorescence microscopic analysis", "format": "cell-based"}},
  "note": "Activity calls are given as the source filed them. The calls are words filed in the database; no cut-off is given here.",
  "data": [
    {"compound": "O=C1Nc2ccc(C(=O)c3ccco3)cc2/C1=C/c1cc(Cl)c(O)c(Cl)c1", "values": [
      {"measurement": "inhibition", "setting": "[1]", "value": "Active"},
      {"measurement": "Activity", "setting": "[2]", "value": 84, "unit": "%"},
      {"measurement": "inhibition", "setting": "[3]", "value": 5.3, "unit": "%"},
      {"measurement": "inhibition", "setting": "[4]", "value": 76, "unit": "%"},
      {"measurement": "inhibition", "setting": "[5]", "value": 98.9, "unit": "%"},
      {"measurement": "fold change (FC)", "setting": "[6]", "value": 3},
      {"measurement": "inhibition", "setting": "[7]", "value": "Active"}
    ]}
  ]
}
